# From patent publication US6699989B1, “Antiviral and antimicrobial guanidine or biguanidine derivatives” (priority 2000, dated 2004)
# Where two headings read alike, the source gives them in different places.
# Tests used:
# HIV-1 [1] = assay: PBMC assay, virus production by reverse transcriptase activity; type: cell-based
# From the text: Method 2: PBMC Assay Method (Peripheral Blood Mononuclear cell)—Description
# This assay addresses the issue of providing a rationale for further evaluation of the compound by providing evidence of in vitro anti-HIV activity against a low passage clinical strain of HIV-1. These fresh human peripheral blood mononuclear cell assays use fresh human cells obtained from the American Red Cross from uninfected, normal human donors. Mononuclear cells from these blood samples are isolated by centrifugation and infected with low passage clinical strains of HIV-1 which have been obtained by culture of blood cells from HIV-infected patients with uninfected PBMCs. Since the PBMCs are not killed by HIV infection, endpoint quantification is performed by measurement of virus production in each well by reverse transcriptase assay or p24 ELISA. These assays provide evidence that the test compounds will have efficacy against viruses, which will likely be encountered in patients without genetic changes, introduced by passage in cell culture.
# Thus, PBMCs assay measures the amount of virus released from the infected cells into the tissue culture supernatant. The activity of the test compound is measured by its ability to reduce the level of virus production relative to the virus controls (cells+virus with no added compound). In PBMC culture we use reverse transcriptase activity in the supernatant to quantify the amount of virus production from the infected cells. Endpoint quantification is performed at 6 days post-infection.
# Fresh human peripheral blood lymphocytes (PBL) are isolated from voluntary Red Cross donors, seronegative for HIV and HBV. Leukophoresed blood is diluted 1:1 with Dulbecco's phosphate buffered saline (PBS), layered over 14 mL of Ficoll-Hypaque density gradient in a 50 mL centrifuge tube. Tubes are then centrifuged for 30 minutes at 600×g. Banded PBLs are gently aspirated from the resulting interface and subsequently washed 2× with PBS by low speed centrifugation. […] After incubation, PBLs are centrifuged and reset in RPMI 1640 with 15% FBS, 2 mM L-glutamine, 100 U/mL. penicillin, 100 ug/mL streptomycin, 10 ug/mL gentamycin, and 20 U/mL recombinant human IL-2. PBLs are maintained in this medium at a concentration of 1-2×10E6/mL with bi-weekly medium changes, until use in assay protocol. For the PBL assay, PHA-P stimulated cells from at least two normal donors are pooled, set in fresh medium at 2×10E6/mL and plated in the interior wells of a 96 well round bottom microplate at 50 μL/well. Test drug dilutions are prepared at a 2× concentration in microtiter tubes and 100 μL of each concentration is placed in appropriate wells in a standard format. 50 μL of a predetermined dilution of virus stock is placed in each test well. Wells with cells and virus alone are used for virus control. Separate plates are identically set without virus for drug cytotoxicity studies using an XTT assay system.
# In the standard PBL assay (MOI: 0.2), the assay was ended on day 7 following collection of cell free supernatant samples for reverse transcriptase activity assay. In the low MOI PBL assay (MOI: 0.02), supernatant samples were collected on day 6, day 11, and day 14 post-infection and analyzed for RT activity.
# PBMCs = assay: Toxicity to PBMC, XTT; type: cell-based, human
# [2] = system: Staphylococcus aureus ATCC 6538; assay: Microdilution broth MIC assay; type: cell-based; settings: ATCC6538, Sa, Mueller Hinton broth, about 17 hr
# Description: (§1) Test organisms. The test organisms are listed in Table 5 along with their source. Prior to assay, overnight bacterial slant cultures were used to inoculate Mueller Hinton broth followed by incubation for 5-7 hr. Each culture was then standardized turbidimetrically to a viable count of about 10^6 colony forming units/ml and used to inoculate the mirotiter assay plates. The viable count after addition to the plates was about 5×10^5 CFU/ml.
# (§2) Experimental design. The MIC of the test compounds for the bacterial strains was determined with a microdilution broth assay in 96 well microtiter plates. The test compounds were dissolved in DMSO and then diluted 10-fold in assay medium (Mueller Hinton broth) to obtain final concentrations of 0.128, 1.28, 12.8, and 128 μg/ml. A viability control containing DMSO, diluted in the same manner as the test compounds, was used to confirm that the DMSO was not inhibitory by itself. Trimethoprim (TMP) was used as a positive drug control. The assay plates were incubated at 37° C. for about 17 hr and each assay well observed visually for growth. The MIC was determined at the lowest concentration of drug which inhibited growth. [drawing 32]
# [3] = system: Staphylococcus epidermidis ATCC 35984; assay: Microdilution broth MIC assay; type: cell-based; settings: ATCC35984, Se, Mueller Hinton broth, about 17 hr
# Description: as §1, §2
# HIV-1 [4] = system: HIV-1
# Description: This is a cytoprotection assay that uses the T-lymphoblastoid tumor cell line CEM-SS and laboratory adapted strains of HIV-1. Upon infection with HIV, the CEM-SS cells form syncytia and eventually die, producing large amounts of progeny virus over the course of 4-6 days at the standard multiplicity of infection (0.01). The antiviral assay measures the ability of a given compound to inhibit the HIV-induced cell killing. […] The activity of the compound is evaluated by measuring cell viability at 6 days post-infection and comparing the viability to that obtained in cell control (cells only), virus control (cells and virus only) and toxicity control (cells and compound only) wells.
# Efficacy of the compound in cell culture is measured by increased cell viability in CEM-SS assays or reduction in virus production in PBMC assays. The data obtained yields a dose response curve which can be evaluated to determine doses which yield 25%, 50% and 95% protection from HIV-induced cell killing or virus production. […] These concentrations are reported as the TC25, TC50 and TC95 values. The ratio of toxicity to efficacy constitutes the therapeutic index TC50/IC50.
# CEM-SS cells assay measures the ability of the compound to inhibit HIV induced cell killing. The cells are stained at 6 days post-infection with the tetrazolium dye XTT which is converted to a colored formazan product by the mitochondria of viable cells. Protection from cell killing afforded by the test compound is measured by comparison to both cell controls and virus controls. Cell killing in this system is directly related to the amount of virus produced by the infected cells and XTT-formazan production is proportional to the number of viable cells in each well. Toxicity of the compound to the target cells is measured in parallel.
# CEM-SS cells (or other established human cell line used in these experiments) were passaged in T-150 flasks for use in the assay. On the day preceding the assay, the cells were split 1:2 to assure they would be in an exponential growth phase at time of infection. On the day of assay the cells were washed twice with tissue culture medium and resuspended in fresh tissue culture medium. Total cell and viability counting was performed using hemacytometer and trypan blue dye exclusion. Cell viability was greater than 95% for the cells to be utilized in the assay. The cells were pelleted and resuspended at 2.5×10^4 cells per ml in tissue culture medium. Cells were added to the drug-containing plates in a volume of 50 μl.
# A pretitered aliquot of virus was removed from the freezer (−80° C.) and allowed to thaw slowly to room temperature in a biological safety cabinet. The virus was resuspended and diluted into tissue culture medium such that the amount of virus added to each well in a volume of 50 μl will be the amount determined to give complete cell killing at 6 days post-infection. In general the virus pools produced with the IIIB isolate of HIV required the addition of 5 μl of virus per well.
# Each plate contained cell control wells (cells only), virus control wells (cells plus virus), drug toxicity control wells (cells plus drug only), drug colorimetric control wells (drug only) as well as experimental wells (drug plus cells plus virus).
# After 6 days of incubation at 37° C. in a 5% CO2 incubator the test plates were analyzed by staining with the tetrazolium dye XTT. XTT-tetrazolium is metabolized by the mitochondrial enzymes of metabolically active cells to a soluble formazan product, allowing the rapid quantitative analysis of the inhibition of HIV-induced cell killing by anti-HIV test substances. On day 6 post-infection plates were removed from the incubator and observed.
compound,measurement,setting,value
N=C(NCCCCCCNC(=N)NC(=N)N1CCN(c2cc3c(cc2F)c(=O)c(C(=O)O)cn3C2CC2)CC1)NC(=N)N1CCN(c2cc3c(cc2F)c(=O)c(C(=O)O)cn3C2CC2)CC1 [BVS-10A],RT ACTIVITY MEAN,"HIV-1 [1]; 0.01 μg/ml, ROJO in PBMC",6532.7 cpm
same,RT ACTIVITY MEAN,"HIV-1 [1]; 0.032 μg/ml, ROJO in PBMC",7531.7 cpm
same,RT ACTIVITY MEAN,"HIV-1 [1]; 0.1 μg/ml, ROJO in PBMC",5919.0 cpm
same,RT ACTIVITY MEAN,"HIV-1 [1]; 0.32 μg/ml, ROJO in PBMC",5899.7 cpm
same,RT ACTIVITY MEAN,"HIV-1 [1]; 1 μg/ml, ROJO in PBMC",6546.7 cpm
same,RT ACTIVITY MEAN,"HIV-1 [1]; 3.2 μg/ml, ROJO in PBMC",2327.0 cpm
same,RT ACTIVITY MEAN,"HIV-1 [1]; 10 μg/ml, ROJO in PBMC",274.0 cpm
same,RT ACTIVITY MEAN,"HIV-1 [1]; 32 μg/ml, ROJO in PBMC",68.0 cpm
same,RT ACTIVITY MEAN,"HIV-1 [1]; 100 μg/ml, ROJO in PBMC",49.3 cpm
same,IC50,"HIV-1 [1]; Human immunodeficiency virus 1, PBMC, PBMCs, read-out: 50% inhibition of virus replication",2.5 µg/mL
same,activity at 0.01 µg/mL,"HIV-1 [1]; Human immunodeficiency virus 1, 0.01 μg/ml, ROJO in PBMC, read-out: RT ACTIVITY % VC",90.8%
same,activity at 0.032 µg/mL,"HIV-1 [1]; Human immunodeficiency virus 1, 0.032 μg/ml, ROJO in PBMC, read-out: RT ACTIVITY % VC",105%
same,activity at 0.1 µg/mL,"HIV-1 [1]; Human immunodeficiency virus 1, 0.1 μg/ml, ROJO in PBMC, read-out: RT ACTIVITY % VC",82.2%
same,activity at 0.32 µg/mL,"HIV-1 [1]; Human immunodeficiency virus 1, 0.32 μg/ml, ROJO in PBMC, read-out: RT ACTIVITY % VC",82%
same,activity at 1 µg/mL,"HIV-1 [1]; Human immunodeficiency virus 1, 1 μg/ml, ROJO in PBMC, read-out: RT ACTIVITY % VC",91%
same,activity at 3.2 µg/mL,"HIV-1 [1]; Human immunodeficiency virus 1, 3.2 μg/ml, ROJO in PBMC, read-out: RT ACTIVITY % VC",32.3%
same,activity at 10 µg/mL,"HIV-1 [1]; Human immunodeficiency virus 1, 10 μg/ml, ROJO in PBMC, read-out: RT ACTIVITY % VC",3.8%
same,activity at 32 µg/mL,"HIV-1 [1]; Human immunodeficiency virus 1, 32 μg/ml, ROJO in PBMC, read-out: RT ACTIVITY % VC",0.9%
same,activity at 100 µg/mL,"HIV-1 [1]; Human immunodeficiency virus 1, 100 μg/ml, ROJO in PBMC, read-out: RT ACTIVITY % VC",0.7%
same,IC50,"HIV-1 [1]; Human immunodeficiency virus 1, ROJO in PBMC, RT activity, read-out: IC50",2.54 µg/mL
same,concentrations at which active in PBMCs,HIV-1 [1]; PBMCs,greater than 3.2 μg/mL
same,TOXICITY % CC,"PBMCs; 0.01 μg/ml, PBMC",103.2%
same,TOXICITY VALUES (XTT O.D. @ 450/650 nm) MEAN,"PBMCs; 0.01 μg/ml, PBMC",3.415 O.D.
same,TOXICITY % CC,"PBMCs; 0.032 μg/ml, PBMC",103.6%
same,TOXICITY VALUES (XTT O.D. @ 450/650 nm) MEAN,"PBMCs; 0.032 μg/ml, PBMC",3.426 O.D.
same,TOXICITY % CC,"PBMCs; 0.1 μg/ml, PBMC",97.1%
same,TOXICITY VALUES (XTT O.D. @ 450/650 nm) MEAN,"PBMCs; 0.1 μg/ml, PBMC",3.214 O.D.
same,TOXICITY % CC,"PBMCs; 0.32 μg/ml, PBMC",100.9%
same,TOXICITY VALUES (XTT O.D. @ 450/650 nm) MEAN,"PBMCs; 0.32 μg/ml, PBMC",3.339 O.D.
same,TOXICITY % CC,"PBMCs; 1 μg/ml, PBMC",96.2%
same,TOXICITY VALUES (XTT O.D. @ 450/650 nm) MEAN,"PBMCs; 1 μg/ml, PBMC",3.181 O.D.
same,TOXICITY % CC,"PBMCs; 3.2 μg/ml, PBMC",103.5%
same,TOXICITY VALUES (XTT O.D. @ 450/650 nm) MEAN,"PBMCs; 3.2 μg/ml, PBMC",3.424 O.D.
same,TOXICITY % CC,"PBMCs; 10 μg/ml, PBMC",108.3%
same,TOXICITY VALUES (XTT O.D. @ 450/650 nm) MEAN,"PBMCs; 10 μg/ml, PBMC",3.583 O.D.
same,TOXICITY % CC,"PBMCs; 32 μg/ml, PBMC",97.3%
same,TOXICITY VALUES (XTT O.D. @ 450/650 nm) MEAN,"PBMCs; 32 μg/ml, PBMC",3.220 O.D.
same,TOXICITY % CC,"PBMCs; 100 μg/ml, PBMC",51.2%
same,TOXICITY VALUES (XTT O.D. @ 450/650 nm) MEAN,"PBMCs; 100 μg/ml, PBMC",1.695 O.D.
same,50% inhibition of cell growth,PBMCs; PBMC cultures,approximately 100 μg/mL
same,TC50,"PBMCs; PBMC, XTT",TC50 (μg/ml) = >100
same,toxicity in PBMCs,PBMCs; at 100 μg/mL,Toxicity was detected
same,MIC,[2],< 0.128 µg/mL
same,MIC,[3],< 0.128 µg/mL
same,% RED. IN VIRAL CPE,"HIV-1 [4]; 0.00032 uG/mL, CEM-SS, HIV1 RF",3%
same,ANTIVIRAL TEST VALUES MEAN O.D.,"HIV-1 [4]; 0.00032 uG/mL, CEM-SS, HIV1 RF",0.038 O.D.
same,% RED. IN VIRAL CPE,"HIV-1 [4]; 0.001 uG/mL, CEM-SS, HIV1 RF",4%
same,ANTIVIRAL TEST VALUES MEAN O.D.,"HIV-1 [4]; 0.001 uG/mL, CEM-SS, HIV1 RF",0.049 O.D.
same,% RED. IN VIRAL CPE,"HIV-1 [4]; 0.0032 uG/mL, CEM-SS, HIV1 RF",1%
same,ANTIVIRAL TEST VALUES MEAN O.D.,"HIV-1 [4]; 0.0032 uG/mL, CEM-SS, HIV1 RF",0.009 O.D.
same,% RED. IN VIRAL CPE,"HIV-1 [4]; 0.01 uG/mL, CEM-SS, HIV1 RF",4%
same,ANTIVIRAL TEST VALUES MEAN O.D.,"HIV-1 [4]; 0.01 uG/mL, CEM-SS, HIV1 RF",0.042 O.D.
same,% RED. IN VIRAL CPE,"HIV-1 [4]; 0.032 uG/mL, CEM-SS, HIV1 RF",7%
same,ANTIVIRAL TEST VALUES MEAN O.D.,"HIV-1 [4]; 0.032 uG/mL, CEM-SS, HIV1 RF",0.083 O.D.
same,% RED. IN VIRAL CPE,"HIV-1 [4]; 0.1 uG/mL, CEM-SS, HIV1 RF",2%
same,ANTIVIRAL TEST VALUES MEAN O.D.,"HIV-1 [4]; 0.1 uG/mL, CEM-SS, HIV1 RF",0.021 O.D.
same,% RED. IN VIRAL CPE,"HIV-1 [4]; 0.32 uG/mL, CEM-SS, HIV1 RF",4%
same,ANTIVIRAL TEST VALUES MEAN O.D.,"HIV-1 [4]; 0.32 uG/mL, CEM-SS, HIV1 RF",0.051 O.D.
same,% RED. IN VIRAL CPE,"HIV-1 [4]; 1 uG/mL, CEM-SS, HIV1 RF",9%
same,ANTIVIRAL TEST VALUES MEAN O.D.,"HIV-1 [4]; 1 uG/mL, CEM-SS, HIV1 RF",0.103 O.D.
same,% RED. IN VIRAL CPE,"HIV-1 [4]; 3.2 uG/mL, CEM-SS, HIV1 RF",2%
same,ANTIVIRAL TEST VALUES MEAN O.D.,"HIV-1 [4]; 3.2 uG/mL, CEM-SS, HIV1 RF",0.025 O.D.
same,% RED. IN VIRAL CPE,"HIV-1 [4]; 10 uG/mL, CEM-SS, HIV1 RF",11%
same,ANTIVIRAL TEST VALUES MEAN O.D.,"HIV-1 [4]; 10 uG/mL, CEM-SS, HIV1 RF",0.123 O.D.
same,% RED. IN VIRAL CPE,"HIV-1 [4]; 32 uG/mL, CEM-SS, HIV1 RF",100%
same,ANTIVIRAL TEST VALUES MEAN O.D.,"HIV-1 [4]; 32 uG/mL, CEM-SS, HIV1 RF",1.515 O.D.
same,% RED. IN VIRAL CPE,"HIV-1 [4]; 32 uG/mL, CEM-SS, HIV1 RF, listed as BVS10A",100%
same,% RED. IN VIRAL CPE,"HIV-1 [4]; 100 uG/mL, CEM-SS, HIV1 RF",100%
same,ANTIVIRAL TEST VALUES MEAN O.D.,"HIV-1 [4]; 100 uG/mL, CEM-SS, HIV1 RF",1.717 O.D.
same,% RED. IN VIRAL CPE,"HIV-1 [4]; 100 uG/mL, CEM-SS, HIV1 RF, listed as BVS10A",100%
same,IC95,HIV-1 [4]; CEM-SS cells,30 µg/mL
same,IC 25%,"HIV-1 [4]; CEM-SS, HIV1 RF",12.00 UG/mL
same,IC 95%,"HIV-1 [4]; CEM-SS, HIV1 RF",30.00 UG/mL
